Inconclusive results and toxic doses are left out. Rule for the calls: active = survival T/C of 150% or more; inactive = T/C below 125% in these data.
Tested on: CD2F1 mice, L1210 leukemia ip, survival T/C
Assay: NCI In Vivo Anticancer Drug Screen. Data for tumor model L1210 Leukemia (intraperitoneal) in CD2F1 (CDF1) mice
Details: endpoint: mean survival time, higher = longer survival
Method: The antitumor activity of compounds was measured in mice bearing transplantable tumors. Survival or tumor size were measured and the results are expressed as the measurement made in the treated group (T) divided by the measurement made in the vehicle treated control group (C). The tumor model used in this assay is L1210 Leukemia (intraperitoneal) in CD2F1 (CDF1) mice

[1] = dose: 100.0 mg/kg/injection, schedule: Q04DX002 (ip), vehicle: saline with Tween-80
[2] = dose: 200.0 mg/kg/injection, schedule: Q04DX002 (ip), vehicle: saline with Tween-80
[3] = dose: 75.0 mg/kg/injection, schedule: Q01DX001 (ip), vehicle: saline
[4] = dose: 150.0 mg/kg/injection, schedule: Q01DX001 (ip), vehicle: saline
[5] = dose: 100.0 mg/kg/injection, schedule: Q04DX003 (ip), vehicle: saline with Tween-80
[6] = dose: 200.0 mg/kg/injection, schedule: Q04DX003 (ip), vehicle: saline with Tween-80
[7] = dose: 400.0 mg/kg/injection, schedule: Q04DX003 (ip), vehicle: saline with Tween-80
[8] = dose: 50.0 mg/kg/injection, schedule: Q01DX009 (ip), vehicle: saline with Tween-80
[9] = dose: 100.0 mg/kg/injection, schedule: Q01DX009 (ip), vehicle: saline with Tween-80
[10] = dose: 200.0 mg/kg/injection, schedule: Q01DX009 (ip), vehicle: saline with Tween-80

Measured: T/C

COc1ccccc1NC(=O)Oc1ccc(Cl)cc1Cl
inactive: [1] 103 % of control | [2] 95 % of control

C1=C(CN2CCCCC2)COc2ccccc21
inactive: dose: 37.5 mg/kg/injection, schedule: Q04DX003 (ip), vehicle: saline 107 % of control | [3] 98 % of control | dose: 75.0 mg/kg/injection, schedule: Q04DX003 (ip), vehicle: saline 104 % of control | [4] 97 % of control | dose: 150.0 mg/kg/injection, schedule: Q04DX003 (ip), vehicle: saline 104 % of control

O=C(O)C1(c2ccccc2)CC1
inactive: dose: 100.0 mg/kg/injection, schedule: Q01DX009 (ip), vehicle: saline sonified 88 % of control | [5] 97 % of control | dose: 200.0 mg/kg/injection, schedule: Q01DX009 (ip), vehicle: saline sonified 92 % of control | [6] 97 % of control | dose: 400.0 mg/kg/injection, schedule: Q01DX009 (ip), vehicle: saline sonified 94 % of control | [7] 110 % of control

O=C(CCN1CCCCC1)c1ccccc1
inactive: dose: 5.0 mg/kg/injection, schedule: Q01DX009 (ip), vehicle: saline 115 % of control | dose: 10.0 mg/kg/injection, schedule: Q01DX009 (ip), vehicle: saline 114 % of control | dose: 20.0 mg/kg/injection, schedule: Q01DX009 (ip), vehicle: saline 102 % of control

CC(=O)c1ccc(Cl)cc1Cl
inactive: dose: 25.0 mg/kg/injection, schedule: Q01DX001 (ip), vehicle: other 104 % of control | dose: 50.0 mg/kg/injection, schedule: Q01DX001 (ip), vehicle: other 102 % of control | dose: 100.0 mg/kg/injection, schedule: Q01DX001 (ip), vehicle: other 95 % of control

C=Cc1ccc(Oc2ccccc2)cc1
inactive: [5] 93 % of control | [6] 97 % of control | [7] 90 % of control

CC(C)(C)CC(C)(C)c1ccc(OCCOc2ccc(NS(=O)(=O)c3ccc(N)c([N+](=O)[O-])c3)cc2)cc1
inactive: dose: 50.0 mg/kg/injection, schedule: Q01DX009 (ip), vehicle: Klucel (hydroxypropylcellulose) (HPC) 101 % of control | dose: 100.0 mg/kg/injection, schedule: Q01DX009 (ip), vehicle: Klucel (hydroxypropylcellulose) (HPC) 101 % of control | dose: 200.0 mg/kg/injection, schedule: Q01DX009 (ip), vehicle: Klucel (hydroxypropylcellulose) (HPC) 98 % of control

CC(=O)[O][Sb]([CH3])([CH3])([CH3])[O]C(C)=O
inactive: [1] 110 % of control | [2] 98 % of control | dose: 400.0 mg/kg/injection, schedule: Q04DX002 (ip), vehicle: saline with Tween-80 103 % of control

Cc1ccccc1S(=O)(=O)F
inactive: [8] 103 % of control | [9] 107 % of control | [5] 92 % of control | [6] 89 % of control

COCC(=O)C(C(C)=O)C(c1ccccn1)C(C(C)=O)C(=O)COC (stereo unspecified)
inactive: dose: 12.5 mg/kg/injection, schedule: Q04DX002 (ip), vehicle: saline with Tween-80 96 % of control | dose: 25.0 mg/kg/injection, schedule: Q04DX002 (ip), vehicle: saline with Tween-80 96 % of control | dose: 50.0 mg/kg/injection, schedule: Q04DX002 (ip), vehicle: saline with Tween-80 104 % of control

O=C(/C=C/C=C/c1ccccc1)c1ccc(Cl)cc1
inactive: dose: 37.5 mg/kg/injection, schedule: Q04DX003 (ip), vehicle: saline with Tween-80 97 % of control | dose: 75.0 mg/kg/injection, schedule: Q04DX003 (ip), vehicle: saline with Tween-80 97 % of control | dose: 150.0 mg/kg/injection, schedule: Q04DX003 (ip), vehicle: saline with Tween-80 89 % of control | [6] 90 % of control | dose: 300.0 mg/kg/injection, schedule: Q04DX003 (ip), vehicle: saline with Tween-80 93 % of control

O=C(NC(CO)C(O)c1ccc([N+](=O)[O-])cc1)C(Cl)Cl (stereo unspecified)
inactive: [9] 96 % of control | [10] 104 % of control | dose: 400.0 mg/kg/injection, schedule: Q01DX009 (ip), vehicle: saline with Tween-80 110 % of control

O=C(O)CC1(CC(=O)O)CCCCC1
inactive: [8] 98 % of control | [9] 94 % of control | [5] 91 % of control | [10] 100 % of control | [6] 93 % of control

CC(C)c1cc(O)c(C(C)C)cc1O
inactive: [3] 104 % of control | [4] 111 % of control

Cc1nc2ccc(Cl)cc2n1C
inactive: [8] 102 % of control | [9] 102 % of control | [10] 106 % of control

C1=CC2OC1c1ccccc12
inactive: dose: 100.0 mg/kg/injection, schedule: Q04DX003 (ip), vehicle: other 93 % of control | dose: 200.0 mg/kg/injection, schedule: Q04DX003 (ip), vehicle: other 98 % of control | dose: 400.0 mg/kg/injection, schedule: Q04DX003 (ip), vehicle: other 93 % of control

From PubChem BioAssay AID256 (DTP/NCI, 2004)
